Measured values taken from article PMC8111499, “GW117: A novel serotonin (5‐HT2C) receptor antagonist and melatonin (MT1/MT2) receptor agonist with potential antidepressant‐like activity in rodents” (CNS Neuroscience & Therapeutics, 2021).

What was measured:
CUS rats [1] = test: Open field test in chronic unpredictable stress (CUS) rats; type: in vivo; details: CUS rats, 5, 10, 20, 40 mg/kg p.o., 4‐week stress, vs. CUS‐vehicle
Protocol: (§1) In order to further examine the antidepressant effects of GW117, chronic unpredictable stress (CUS) model was utilized; the methods were as described before. ^29 , ^31 After 1 week of training, rats underwent sucrose training of 48 h. After training, a sucrose baseline test was performed. […] Gastric gavage was given 1 h before the stress (08:00–09:00). Except for the non‐stressed group, all rats were stimulated by a series of stressors. stress methods included the following: fast on food and water (24 h), moisture cage (150 g sawdust bedding in 200 ml water), overnight illumination, low‐intensity strobe illumination (100 flashes/min), forced swimming (5 min at 10℃), white noise (110 dB), tail pinch (1 cm from tail root, 6 min), 45℃ cage tilt, and restraint (1–2 h). Stressors need to be used continuously and randomly. Non‐stressed rats received free food and water, but were required to fast for 14 h before sucrose preference test. After 4 weeks of stress, the sucrose preference test (SPT) (on day 25), open field test (OFT) (on day 28), and novelty‐suppressed feeding (NSF) test (on day 29) were carried out.
The OFT device was a chamber (diameter, 122 cm; height, 45 cm) that was grouped equally into 16 sections. 24 h after the last administration, rats were put into the center of the chamber and the numbers of crossings and readings were recorded in 5 min.

MT1 receptor = molecular target: T1, MT1 receptor (Homo sapiens, UniProt P48039); test: MT1 receptor binding assay ([3H]‐melatonin competition); details: mean ± SEM, three independent experiments
T1 construct: purchased Perkin‐Elmer ES‐620
Protocol: (§2) The stably transfected 5‐HT2C receptor HEK293 cell line was prepared using a nucleus‐cytoplasm‐membrane preparation kit (Applagin Technologies Inc.). Briefly, cells were harvested at 4°C, 110 00 × g and centrifugation for 5 min. Homogenize pellets in the assay buffer (50 mM Tris‐HCl buffer containing 120 mM NaCl and 5 mM KCl, pH 7.4) and then centrifuged twice at 4°C, 36,000 × g for 15 min. Finally, pellets were re‐suspended in assay buffer and stored it at −80°C until it is used for in vitro experiments.
(§3) Receptor membrane protein, MT1 or MT2 (10 μl), was added to all pipes. Non‐specific binding was determined by the presence of unlabeled 10 µM melatonin and pre‐reacted for 30 min. In test tubes, 30 μl of test drugs (MT1: concentration, 10^−4–10^−10 M; MT2: concentration, 10^−4–10^−11 M) was added. Additionally, 40 μl [^3H]‐melatonin was added to all tubes. The volume in all reaction tubes was made up to 300 μl with Tris‐HCl buffer (50 mM, pH 7.4). Reactions were performed at 25°C for 1 h. The mixture was then spotted onto a type 49 glass fiber filter paper, suction filtered under vacuum, rinsed three times with 2 ml ice‐cold Tris‐HCl buffer (50 mM, pH 7.4), and dried by suction. […] Finally, 1 ml of scintillation fluid was added and then the radioactive intensity measured by liquid scintillation counting.

CUS rats [2] = test: Sucrose preference test in CUS rats; type: in vivo; details: chronic, 5, 10, 20, and 40 mg/kg, vs. CUS‐vehicle
Protocol: as §1
The SPT was performed as previously reported. ^32 Rats were trained to administer sucrose water solution after 48 h fasting and water deprivation. […] Sucrose and water intake were measured, and sucrose preference was calculated: SP =sucrose intake ×100%/ (sucrose intake +water intake). […]

MT2 receptor = molecular target: T2, MT2 receptor (Homo sapiens, UniProt P49286); test: MT2 receptor binding assay ([3H]‐melatonin competition); details: mean ± SEM, three independent experiments
T2 construct: purchased Perkin‐Elmer ES‐621
T2 sequence (P49286 1-362): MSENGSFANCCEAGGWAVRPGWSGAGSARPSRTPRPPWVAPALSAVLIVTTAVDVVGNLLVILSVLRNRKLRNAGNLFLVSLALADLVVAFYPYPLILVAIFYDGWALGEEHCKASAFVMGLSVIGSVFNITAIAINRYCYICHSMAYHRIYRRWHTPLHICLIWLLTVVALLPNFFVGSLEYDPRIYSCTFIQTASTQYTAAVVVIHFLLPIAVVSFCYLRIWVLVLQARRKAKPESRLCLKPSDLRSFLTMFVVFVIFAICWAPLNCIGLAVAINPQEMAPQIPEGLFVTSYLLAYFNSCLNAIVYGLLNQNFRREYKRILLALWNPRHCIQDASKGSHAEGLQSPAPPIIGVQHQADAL
Protocol: as §2, §3

mice = test: Tail suspension test in mice; type: in vivo, ICR mice
Protocol: The tail suspension test (TST) was conducted as described earlier. ^28 , ^29 Eighty naive mice were randomly divided into eight treatment groups (n = 10/group). All mice received a single dose of the drug (p.o.). After 60 min of gavage administration, mice were suspended from the top of the apparatus (25 × 25 × 35 cm) using tape about 1 cm from the tail tip. The duration of immobility was recorded in the last 4 min for a total of 6 min. When mice are passively suspended immobile, they are judged to be stationary.

T1 sequence (P48039 whole entry): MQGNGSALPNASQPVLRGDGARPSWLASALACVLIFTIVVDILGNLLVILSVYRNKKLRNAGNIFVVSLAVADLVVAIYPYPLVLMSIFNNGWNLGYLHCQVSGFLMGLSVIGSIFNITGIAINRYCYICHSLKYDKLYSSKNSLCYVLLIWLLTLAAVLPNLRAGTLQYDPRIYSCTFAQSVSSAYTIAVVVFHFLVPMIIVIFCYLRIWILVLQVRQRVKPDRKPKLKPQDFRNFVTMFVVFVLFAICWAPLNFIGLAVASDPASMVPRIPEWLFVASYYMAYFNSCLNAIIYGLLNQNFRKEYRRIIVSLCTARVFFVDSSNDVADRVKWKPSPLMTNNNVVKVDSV

SMILES: [2H]C([2H])([2H])Oc1cc2c(CCNC(C)=O)cccc2cc1Cl [GW117]
- number of rearings and crossings in open field (CUS rats [1]): markedly add to the number of rearings and crossings
- Ki (MT1 receptor): 0.12 ± 0.06 nM
- sucrose preference (CUS rats [2]): markedly increased sucrose preference
- Ki (MT2 receptor): 54 ± 7.31 nM
- immobility time in TST (mice; acute, p.o., 20 and 40 mg/kg, vs. vehicle): markedly reduced the immobility time
- minimal effective dose in TST (mice; immobility time): 20 mg/kg
